# US12304894B2, “Derivatives of adamantyl oxadiazoles and pharmaceutically acceptable solvates, hydrates and salts thereof, pharmaceutical composition comprising same, synthesis method, suitable for use as effective and selective inhibitors of the reductase activity of the enzyme 11-beta dehydrogenase type 1 …” (PONTIFICIA UNIVERSIDAD CATOLICA DE CHILE, priority 2019, dated 2025)
# Assay: In vivo pharmacokinetics in mice, IV and oral
# Set-up: species or system male C57BL/6J mice
# Experimental: The animals were classified according to weight and divided into the following groups (Table 7):
# 20% Kolliphor and 50% PBS at a concentration of 1 mg/mL. From this solution, a 0.4 mg/mL dilution was made for IV administration.
# In intravenous (IV) administration, after each compound was administered to the mice, the mice were separated into groups of 3 and were euthanized at times 5, 10, 15, 30, 60, 120, 240, 260, 480 and 1440 minutes. For oral administration (V.O), the mice were separated into groups of 3 and were euthanized at times 15, 30, 60, 120, 240, 260, 480 and 1440 minutes. To obtain zero-time assays, mice were used to which no compound was administered.
# Whole blood was obtained from each animal (in microtubes with EDTA); these samples were centrifuged at 9000 g at a temperature of 4° C. for a period of 5 minutes, obtaining the plasma which was stored at −80° C.
# In addition, organs such as brain, liver, muscle, epididymal fat, heart and kidney were obtained from the animals, which were frozen in liquid nitrogen and stored at −80° C.
# Plasma samples and brain, liver, epididymal fat, and muscle (tissue) samples were analyzed. 2× in volume of water (weight/volume) was added to the tissue samples while 4× in volume of water (weight/volume) was added to the muscle mixture, after which they were homogenized using a Bullet Blender equipment (Next Advance, USA).
# All samples were analyzed as a single point by LC-MS/MS in accordance with the analytical methodology already standardized and presented in application example 3.
# To begin, a calibration curve was run. For this purpose, the controls, the plasma and organ samples were prepared by adding 180 μL of cold acetonitrile to these, then vortexed for 15 seconds and centrifuged at 6100 g for 30 seconds at 4° C. The supernatant which was obtained from this procedure was diluted in 2 volumes of 0.2% formic acid in water and transferred to a vial that will allow it to be injected into LC-MS/MS.
# The conditions for the LC-MS/MS analysis were: • HPLC: Eksigent UltraLC 100 • Autosampler: Eksigent UltraLC 100-XL at RT • Mobile phase: A-0.1% formic acid in water; B-0.1% formic acid in acetonitrile. • Column: YMC Triart 1.9 μm; 2.0×50 mm • Injection volume: 2 μL • Gradient: 5% B for 0.25 min→5-95% B for 0.75 min→95% B for 2 min→95-5% B for 0.25 min→5% B for 0.25 min • Flow: 0.6 mL/min • Mass Spectrometer: Applied Biosystems/SCIEX QTRAP 4500 • Interface: TurbolonSpray (ESI) at 600° C. • Software: Analyst.
smiles,measurement,setting,value
"Cc1cccc(CCc2nc(C34CC5CC(CC(C5)C3)C4)no2)c1 [BD-40, 1-(3-methylphenyl)-2-(3-adamantyl-1,2,4-oxadiazol-5-yl)ethane]",AUCExtr,"IV, 2 mg/Kg, plasma",5.240%
same,AUCInf,"IV, 2 mg/Kg, plasma",623 ng·h/mL
same,AUCfinal,"IV, 2 mg/Kg, plasma",649 ng·h/mL
same,C0/Cmax,"IV, 2 mg/Kg, plasma",2200 ng/mL
same,CL,"IV, 2 mg/Kg, plasma",53.5 mL/min/kg
same,MRTInf,"IV, 2 mg/Kg, plasma",87.6 min
same,Vz,"IV, 2 mg/Kg, plasma",15.30 L/kg
same,t1/2,"IV, 2 mg/Kg, plasma",198 min
same,AUCExtr,"PO, dose 3 mg/Kg, plasma",3.6%
same,AUCInf,"PO, dose 3 mg/Kg, plasma",596 ng·h/mL
same,AUCfinal,"PO, dose 3 mg/Kg, plasma",575 ng·h/mL
same,C0/Cmax,"PO, dose 3 mg/Kg, plasma",393 ng/mL
same,CL,"PO, dose 3 mg/Kg, plasma",280 mL/min/kg
same,F,"PO, dose 3 mg/Kg, plasma",19.1%
same,Vz,"PO, dose 3 mg/Kg, plasma",168 L/kg
same,t1/2,"PO, dose 3 mg/Kg, plasma",32.3 min
same,tmax,"PO, dose 3 mg/Kg, plasma",30 min
same,mean time (of elimination) of the drug,"administered intravenously, plasma",3.30 h
same,mean time (of elimination) of the drug,"administered orally, plasma",0.864 h
same,"detection in tissues (brain, liver, fat, muscle)",oral and intravenous administration,can be detected in the different tissues
same,bioavailability / apparent availability,plasma,good bioavailability
